This note sets out measurements from PMC10135272, “Synthesis, Molecular Docking Study, and Biological Evaluation of New 4-(2,5-Dimethyl-1H-pyrrol-1-yl)-N’-(2-(substituted)acetyl)benzohydrazides as Dual Enoyl ACP Reductase and DHFR Enzyme Inhibitors” (Antibiotics, 2023).

Values after ≈ are worked out from the molar mass of the structure shown. Like-named read-outs stand apart in the source and are kept apart here.

The subject of one data set is M. tuberculosis H37Rv. Description: Antitubercular activity, Microplate Alamar Blue assay (MABA). The data set is classed as cell-based. The settings on record: Mycobacterium tuberculosis, average of triplicate tests. (The colour change of resazurin is a common sign of viable cells or microbes.)
The next data set deals with S. aureus (Gram +ve). Description: Antibacterial activity, broth microdilution. The data set is classed as cell-based. The settings on record: Staphylococcus aureus. On the technique in general: Dilution methods test growth across graded concentrations, often in twofold steps.
Another data set concerns E. coli (Gram −ve). The experiment in a line: Antibacterial activity, broth microdilution. The data set is classed as cell-based. The settings on record: Escherichia coli.
A further data set has as its target MtDHFR (Mycobacterium tuberculosis, UniProt P9WNX1). The experiment in a line: biochemical. The settings on record: for MtDHFR inhibitory activity (in words): in vitro assay. Format: biochemical.
The target of data set [1] is InhA (enoyl ACP reductase) (Mycobacterium tuberculosis, UniProt P9WGR1). Description: Enoyl ACP reductase (InhA) inhibition. Format: biochemical. The settings on record: for enoyl ACP reductase inhibitory activity (in words): in vitro assay.
Data set [2] in a line: MTT-based cytotoxicity. Format: cell-based. The settings on record: African green monkey; MTT assay, Mammalian Vero cell lines, means ± SEM of three independent experiments; read-out: IC50 MV Cell Lines (cytotoxicity). The protocol: (§1) Cellular conversion of MTT (3-(4,5-dimethylthiazo-2-yl)-2,5-diphenyl-tetrazolium bromide) into a formazan product was performed to evaluate the cytotoxic activity (IC50) of some of the compounds against A549 (lung adenocarcinoma) MV cell lines up to a concentration of […] using a Promega Cell Titer 96 non-radioactive cell proliferation assay with cisplatin as the positive control. The IC50 values given in Table 6 are the averages ± SEM of three independent measurements.
A general note: Tetrazolium assays rely on reduction of a dye to a coloured formazan, in cell work by metabolically active cells.

Data set [3] can be described thus: MTT-based cytotoxicity. Format: cell-based, human. The settings on record: human; MTT assay, A549 lung adenocarcinoma, means ± SEM of three independent experiments. Here is the method: as §1
Data set [4] concerns Mammalian Vero cell lines (MV cell lines). Description: MTT-based cytotoxicity. The data set is classed as cell-based. Here is the method:
as §1

Data set [5] relates to A549 (lung adenocarcinoma) cell lines. The experiment in a line: MTT-based cytotoxicity. The data set is classed as cell-based, human. Here is the method: as §1

Chain of MtDHFR (P9WNX1 whole entry): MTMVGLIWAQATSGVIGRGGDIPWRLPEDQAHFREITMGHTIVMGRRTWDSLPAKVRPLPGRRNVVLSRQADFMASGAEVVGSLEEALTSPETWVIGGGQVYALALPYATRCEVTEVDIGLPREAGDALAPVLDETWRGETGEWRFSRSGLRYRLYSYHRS
Chain of InhA (enoyl ACP reductase) (P9WGR1 whole entry, looked up): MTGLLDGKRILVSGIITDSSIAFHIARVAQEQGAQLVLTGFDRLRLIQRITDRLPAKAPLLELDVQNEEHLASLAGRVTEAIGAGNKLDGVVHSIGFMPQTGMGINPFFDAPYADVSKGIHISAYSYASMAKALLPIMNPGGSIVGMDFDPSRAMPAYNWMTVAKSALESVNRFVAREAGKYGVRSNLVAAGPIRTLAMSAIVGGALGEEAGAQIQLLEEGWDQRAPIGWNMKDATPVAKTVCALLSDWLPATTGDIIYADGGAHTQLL

The term MIC denotes the least concentration at which growth counts as inhibited. Read a high MIC as a less susceptible organism. Compound `[H]/N=C(/N)N[C@H]1[C@H](O)[C@@H](O)[C@H](O[C@@H]2O[C@@H](C)[C@](O)(C=O)[C@H]2O[C@@H]2O[C@@H](CO)[C@H](O)[C@@H](O)[C@@H]2NC)[C@@H](N/C(N)=N\[H])[C@@H]1O` [Streptomycin, reference compound] displayed an MIC against M. tuberculosis H37Rv of 6.25 µg/mL (≈ 10.7 µM).

One may read the IC50 as the midpoint of a concentration-inhibition curve. As a reminder, the inhibition is the percentage by which the read-out fell short of the control. A high value points to a strong effect. Take `Cc1ccc(CC(=O)NNC(=O)c2ccc(-n3c(C)ccc3C)cc2)cc1` [Compound 5c, 4-(2,5-Dimethyl-1H-pyrrol-1-yl)-N′-(2-(p-tolyl)acetyl)benzohydrazide]: the MIC in the data set with M. tuberculosis H37Rv is 25 µg/mL (≈ 69.2 µM); with S. aureus (Gram +ve) it was 3.12 µg/mL (≈ 8.63 µM); in the data set on E. coli (Gram −ve), 50 µg/mL (≈ 138 µM). The figures for the IC50 against MtDHFR, in the data set “MTT-based cytotoxicity [2]” and in the data set “MTT-based cytotoxicity [3]” were 118 µM, 221 ± 0.8 µM and 219 ± 0.7 µM, respectively. In [1], this compound had an inhibition at 50 µM of 20%.

As to `Cc1ccc(C)n1-c1ccc(C(=O)NNC(=O)Cc2ccc(F)cc2)cc1` [Compound 5k, 4-(2,5-Dimethyl-1H-pyrrol-1-yl)-N′-(2-(4-flurophenyl)acetyl)benzohydrazide], the MIC in the data set on M. tuberculosis H37Rv was found to be 0.8 µg/mL (≈ 2.19 µM); in the data set with S. aureus (Gram +ve), 1.6 µg/mL (≈ 4.38 µM); against E. coli (Gram −ve), 50 µg/mL (≈ 137 µM). Further, the IC50 turned out to be 10 µM at MtDHFR, 221 ± 0.3 µM in the data set “MTT-based cytotoxicity [2]” and 219 ± 0.4 µM in the data set “MTT-based cytotoxicity [3]”. Also, the “MtDHFR inhibitory activity (in words)” value at MtDHFR was “promising enzyme inhibitory activity”. In addition, the inhibition at 50 µM in data set [1] was determined as 88%. The “enoyl ACP reductase inhibitory activity (in words)” value in [1] is reported as “promising enzyme inhibitory activity”.

As to `NC(=O)c1cnccn1` [Pyrazinamide, reference compound], in the data set with M. tuberculosis H37Rv, the MIC worked out at 3.12 µg/mL (≈ 25.4 µM).

With `Cc1ccc(C)n1-c1ccc(C(=O)NNC(=O)Cc2ccc(O)cc2)cc1` [Compound 5l, 4-(2,5-Dimethyl-1H-pyrrol-1-yl)-N′-(2-(4-hydroxyphenyl)acetyl)benzohydrazide], the MIC against M. tuberculosis H37Rv is 3.25 µg/mL (≈ 8.94 µM); in the data set on S. aureus (Gram +ve), 6.25 µg/mL (≈ 17.2 µM); in the data set with E. coli (Gram −ve), 50 µg/mL (≈ 138 µM). The same compound displayed an IC50 on MtDHFR of 30 µM.

Take `Cc1ccccc1CC(=O)NNC(=O)c1ccc(-n2c(C)ccc2C)cc1` [Compound 5b, 4-(2,5-Dimethyl-1H-pyrrol-1-yl)-N′-(2-(o-tolyl)acetyl)benzohydrazide]: the MIC in the data set with M. tuberculosis H37Rv is 25 µg/mL (≈ 69.2 µM); in the data set with S. aureus (Gram +ve) it was 0.8 µg/mL (≈ 2.21 µM); with E. coli (Gram −ve) it was 50 µg/mL (≈ 138 µM). The same compound registered an IC50 at MtDHFR of 125 µM.

Regarding `Cc1ccc(C)n1-c1ccc(C(=O)NNC(=O)Cc2ccc([N+](=O)[O-])cc2)cc1` [Compound 5n, 4-(2,5-Dimethyl-1H-pyrrol-1-yl)-N′-(2-(4-nitrophenyl)acetyl)benzohydrazide], the MIC was 1.6 µg/mL (≈ 4.08 µM) with M. tuberculosis H37Rv, 12.5 µg/mL (≈ 31.9 µM) with S. aureus (Gram +ve) and 50 µg/mL (≈ 127 µM) with E. coli (Gram −ve). Moreover, the midpoint of inhibition on MtDHFR, the IC50, lay at 15 µM.

On to `O=C(O)c1cn(C2CC2)c2cc(N3CCNCC3)c(F)cc2c1=O` [Ciprofloxacin, reference compound], for which the MIC against S. aureus (Gram +ve) and against E. coli (Gram −ve) was 2 µg/mL (≈ 6.04 µM) each time.

In the case of `COc1ccccc1CC(=O)NNC(=O)c1ccc(-n2c(C)ccc2C)cc1` [Compound 5e, 4-(2,5-Dimethyl-1H-pyrrol-1-yl)-N′-(2-(2-methoxyphenyl)acetyl)benzohydrazide], the MIC was determined as 6.25 µg/mL (≈ 16.6 µM) against M. tuberculosis H37Rv, 6.25 µg/mL (≈ 16.6 µM) against S. aureus (Gram +ve) and 100 µg/mL (≈ 265 µM) against E. coli (Gram −ve). At MtDHFR, 78 µM corresponded to half-maximal inhibition (IC50).

In the case of `Cc1ccc(C)n1-c1ccc(C(=O)NNC(=O)Cc2ccccc2Cl)cc1` [Compound 5g, N′-(2-(2-Chlorophenyl)acetyl)-4-(2,5-dimethyl-1H-pyrrol-1-yl)benzohydrazide], the MIC against M. tuberculosis H37Rv was 3.25 µg/mL (≈ 8.51 µM); against S. aureus (Gram +ve), 3.12 µg/mL (≈ 8.17 µM); against E. coli (Gram −ve), 50 µg/mL (≈ 131 µM). For the same compound, the IC50 at MtDHFR came out at 26 µM.

For the compound `Cc1ccc(C)n1-c1ccc(C(=O)NNC(=O)Cc2cccc(Br)c2)cc1` [Compound 5m, 4-(2,5-Dimethyl-1H-pyrrol-1-yl)-N′-(2-(3-bromophenyl)acetyl)benzohydrazide], the MIC against M. tuberculosis H37Rv turned out to be 3.25 µg/mL (≈ 7.62 µM); in the data set with S. aureus (Gram +ve), 12.5 µg/mL (≈ 29.3 µM); against E. coli (Gram −ve), 50 µg/mL (≈ 117 µM). The same compound displayed an IC50 against MtDHFR of 18 µM.

For the compound `COc1ccc(CC(=O)NNC(=O)c2ccc(-n3c(C)ccc3C)cc2)cc1` [Compound 5d, 4-(2,5-Dimethyl-1H-pyrrol-1-yl)-N′-(2-(4-methoxyphenyl)acetyl)benzohydrazide], the MIC against M. tuberculosis H37Rv turned out to be 3.25 µg/mL (≈ 8.61 µM); in the data set on S. aureus (Gram +ve), 3.12 µg/mL (≈ 8.27 µM); in the data set on E. coli (Gram −ve), 100 µg/mL (≈ 265 µM). For the same compound, the figures for the IC50 against MtDHFR, in “MTT-based cytotoxicity [2]” and in the data set “MTT-based cytotoxicity [3]” were 85 µM, 214 ± 0.6 µM and 214 ± 0.2 µM, respectively. In data set [1], this compound came in with an inhibition at 50 µM of 32%.

Take `Cc1ccc(C)n1-c1ccc(C(=O)NNC(=O)Cc2ccc(Cl)cc2)cc1` [Compound 5f, N′-(2-(4-Chlorophenyl)acetyl)-4-(2,5-dimethyl-1H-pyrrol-1-yl)benzohydrazide]: the MIC against M. tuberculosis H37Rv came out at 1.6 µg/mL (≈ 4.19 µM); against S. aureus (Gram +ve) it was 1.6 µg/mL (≈ 4.19 µM); with E. coli (Gram −ve) it was 50 µg/mL (≈ 131 µM). Further, the IC50 at MtDHFR stood at 25 µM; in “MTT-based cytotoxicity [2]”, 215 ± 0.2 µM; in “MTT-based cytotoxicity [3]”, 216 ± 0.5 µM. Moreover, the “MtDHFR inhibitory activity (in words)” value on MtDHFR is recorded as “promising enzyme inhibitory activity”. In data set [1], this compound registered an inhibition at 50 µM of 76%. For the same compound, the “enoyl ACP reductase inhibitory activity (in words)” value in [1] is “promising enzyme inhibitory activity”.

As to `Cc1ccc(C)n1-c1ccc(C(=O)NNC(=O)Cc2ccccc2)cc1` [Compound 5a, 4-(2,5-Dimethyl-1H-pyrrol-1-yl)-N′-(2-phenylacetyl)benzohydrazide], the MIC worked out at 25 µg/mL (≈ 72 µM) in the data set with M. tuberculosis H37Rv, 50 µg/mL (≈ 144 µM) with S. aureus (Gram +ve) and 50 µg/mL (≈ 144 µM) with E. coli (Gram −ve). For the same compound, the IC50 on MtDHFR was 146 µM.

`NNC(=O)c1ccncc1` [INH, reference compound]: the IC50 in [4] and in data set [5] was greater than 450 µM each time.

For `Cc1ccc(C)n1-c1ccc(C(=O)NNC(=O)Cc2ccccc2Br)cc1` [Compound 5j, N′-(2-(2-Bromophenyl)acetyl)-4-(2,5-dimethyl-1H-pyrrol-1-yl)benzohydrazide], the MIC stood at 1.6 µg/mL (≈ 3.75 µM) against M. tuberculosis H37Rv, 6.25 µg/mL (≈ 14.7 µM) in the data set on S. aureus (Gram +ve) and 50 µg/mL (≈ 117 µM) against E. coli (Gram −ve). The IC50 at MtDHFR is 15 µM.

Regarding `Cc1ccc(C)n1-c1ccc(C(=O)NNC(=O)Cc2ccc(Br)cc2)cc1` [Compound 5i, N′-(2-(4-Bromophenyl)acetyl)-4-(2,5-dimethyl-1H-pyrrol-1-yl)benzohydrazide], the MIC with M. tuberculosis H37Rv is 1.6 µg/mL (≈ 3.75 µM); against S. aureus (Gram +ve), 6.25 µg/mL (≈ 14.7 µM); in the data set on E. coli (Gram −ve), 50 µg/mL (≈ 117 µM). For the same compound, the IC50 worked out at 18 µM on MtDHFR, 218 ± 0.3 µM in the data set “MTT-based cytotoxicity [2]” and 214 ± 0.4 µM in the data set “MTT-based cytotoxicity [3]”. Besides, the “MtDHFR inhibitory activity (in words)” value on MtDHFR is given as “promising enzyme inhibitory activity”. The compound further came in with an inhibition at 50 µM in data set [1] of 72%. In addition, the “enoyl ACP reductase inhibitory activity (in words)” value in [1] was “promising enzyme inhibitory activity”.

Regarding `Cc1ccc(C)n1-c1ccc(C(=O)NNC(=O)Cc2cccc(Cl)c2)cc1` [Compound 5h, N′-(2-(3-Chlorophenyl)acetyl)-4-(2,5-dimethyl-1H-pyrrol-1-yl)benzohydrazide], the MIC in the data set on M. tuberculosis H37Rv is 3.25 µg/mL (≈ 8.51 µM); with S. aureus (Gram +ve), 6.25 µg/mL (≈ 16.4 µM); against E. coli (Gram −ve), 50 µg/mL (≈ 131 µM). Also, the IC50 against MtDHFR was 30 µM.
